Data reported in patent publication US12171229B2, “Heteroaryl-triazole and heteroaryl-tetrazole compounds as pesticides” (BAYER AKTIENGESELLSCHAFT, priority 2018, dated 2024).

Experiments:
Format in all cases: in vivo
[1] = test system: Boophilus microplus; test: Boophilus microplus injection test; details: Rhipicephalus microplus, 168 h; 20 μg/animal injected into the abdomen; adult engorged female ticks; egg deposition after 7 days; read-out: efficacy (infertile eggs)
Method in brief: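 Efficacy, from 0% (all eggs fertile) to 100% (all infertile), was scored on eggs laid by five engorged adult females. Each female was injected intra-abdominally with 1 μl of compound solution in DMSO. Fertile egg laying was checked at 7 days, with uncertain eggs kept until hatching at about 42 days.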

[2] = test system: Ctenocephalides felis; test: Ctenocephalides felis oral test; details: 48 h, 100 ppm in cattle blood, after 2 days, adult unfed cat fleas
Method in brief: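 Compound dissolved in DMSO and diluted in cattle blood to test concentration, offered to ~20 unfed adult fleas via a parafilm-sealed blood chamber held at 37° C (fleas at room temperature). Kill recorded at 2 days as % mortality.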

[3] = test system: Myzus persicae; test: Myzus persicae oral test; details: 120 h, after 5 days
Method in brief: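 Aphid mortality (%) was recorded 5 days after a mixed Myzus persicae population began sucking, through parafilm, on compound solutions (acetone stock diluted with water) combined with sugar-supplemented IPL41 medium.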

[4] = test system: Phaedon cochleariae; test: Phaedon cochleariae spray test; details: foliar, 168 h, after 7 days, larvae on Chinese cabbage leaf disks
Protocol: Phaedon Cochleariae—Spray Test
(§1) To produce a suitable preparation of active compound, 1 part by weight of active compound is mixed with the stated amount of solvents and is diluted with water, containing an emulsifier concentration of 1000 ppm, to the desired concentration. Further test concentrations are prepared by dilution with emulsifier containing water.
Chinese cabbage (Brassica pekinensis) leaf disks are sprayed with a preparation of the active ingredient of the desired concentration. Once dry, the leaf disks are infested with mustard beetle larvae (Phaedon cochleariae).
After 7 days mortality in % is determined. 100% means all beetle larvae have been killed and 0% means none of the beetle larvae have been killed.

[5] = test system: Spodoptera frugiperda; test: Spodoptera frugiperda spray test; details: 168 h, after 7 days, larvae on maize leaf sections
Method in brief: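 Leaf-spray assay on maize: sections treated with active ingredient at the desired concentration in emulsifier-containing water (1000 ppm) and, once dry, exposed to armyworm caterpillars. Kill rate is expressed in percent after seven days.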

[6] = test system: Diabrotica balteata; test: Diabrotica balteata spray test; details: Diabrotica balteata, in Triticum aestivum, 168 h, after 7 days, larvae on wheat seeds, read-out: efficacy (seedlings grown up); for pest or weed control at 80 µg/disc, 250 g/ha: 80 μg/well (=250 g/ha); for pest or weed control at 160 µg/disc, 500 g/ha: 160 μg/well (=500 g/ha)
Method in brief: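 Scoring at 7 days compares seedling growth with untreated, uninfested controls (100% = equal growth, 0% = none grown). Wheat seedlings germinated 1 day on agar, 5 per well, received a spray of test solution made in 1000 ppm emulsifier water. Each unit then received 10–20 beetle larvae.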

[7] = test system: Rhipicephalus sanguineus; test: Rhipicephalus sanguineus in-vitro contact test, adult brown dog ticks; details: 5 μg/cm^2 (=500 g/ha), after 48 hours, read-out: efficacy (ticks dead or moribund)
Protocol: Rhipicephalus Sanguineus—In-Vitro Contact Tests with Adult Brown Doe Ticks
9 mg compound is solved in 1 ml acetone and diluted with acetone to the desired concentration. 250 μl of the test solution is filled in 25 ml glass test tubes and homogeneously distributed on the inner walls by rotation and tilting on a shaking device (2 h at 30 rpm). With a compound concentration of 900 ppm, an inner surface of 44.7 cm^2 and a homogeneous distribution, a dose of 5 μg/cm^2 is achieved.
After the solvent has evaporated, each test tube is filled with 5-10 adult brown dog ticks (Rhipicephalus sanguineus), closed with a perforated lid and incubated in a lying position at room temperature and relative humidity. After 48 hours efficacy is determined. The ticks are patted on the ground of the tubes and are incubated on a heating plate at 45-50° C. for at most 5 minutes. Immotile or uncoordinated moving ticks, which are not able to escape the heat by climbing upwards, are marked as dead or moribund.
An efficacy of 100% means all ticks are dead or moribund; 0% means no ticks are dead or moribund.

[8] = test system: Nilaparvata lugens; test: Nilaparvata lugens spray test; details: 336 h, after 14 days, rice plants
Protocol: Nilaparvata lugens—Spray Test
as §1
Rice plants (Oryza sativa) are sprayed with a preparation of the active ingredient of the desired concentration and the plants are infested with the brown planthopper (Nilaparvata lugens).
After 14 days mortality in % is determined. 100% means all planthoppers have been killed and 0% means none of the planthoppers have been killed.

[9] = test system: Nezara viridula; test: Nezara viridula spray test; details: 96 h, after 4 days, larvae on barley plants
Method in brief: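 Mortality (%) was assessed at day 4, from 0% (no bugs dead) to 100% (all dead). The spray solution was compound diluted to test concentration in water with 1000 ppm emulsifier and applied to barley carrying southern green stink bug larvae.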

[10] = test system: cattle ticks (Boophilus microplus) strane Parhurst, SP-resistant; test: Boophilus microplus dip test; details: Rhipicephalus microplus, 168 h, engorged adult female cattle ticks, egg deposition after 7 days, read-out: efficacy (infertile eggs)
Protocol: Boophilus microplus—Dip Test
Test animal: cattle ticks (Boophilus microplus) strane Parhurst, SP-resistant
Solvent: dimethyl sulfoxide
To produce a suitable preparation of active compound, 10 mg of active compound are dissolved in 0.5 ml solvent, and the concentrate is diluted with water to the desired concentration.
This compound solution is pipetted into tubes. 8-10 engorged, adult, female cattle ticks (Boophilus microplus) are placed in perforated tubes. These tubes are immersed in the aqueous compound solution until the ticks are completely moistened. After the liquid has drained off, the ticks are transferred to a filter paper in a plastic tray and stored in a climate chamber.
After 7 days egg deposition of fertile eggs is monitored. Eggs where fertility is not visible are stored in a climate chamber till hatching after about 42 days. An efficacy of 100% means all eggs are infertile; 0% means all eggs are fertile.

[11] = test system: Ctenocephalides felis; test: Ctenocephalides felis in-vitro contact test, adult cat flea; details: 5 μg/cm^2 (=500 g/ha), after 48 hours, adult cat fleas, read-out: efficacy (fleas dead or moribund)
Method in brief: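 Compound in acetone coated onto inner walls of glass tubes, e.g. 900 ppm giving 5 μg/cm². After drying, 5–10 adult C. felis added per tube and held at room temperature. At 48 h, fleas unable to escape a 45–50 °C heating plate within 5 min scored dead/moribund, giving % efficacy.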

[12] = test system: Meloidogyne incognita; test: Meloidogyne incognita test; details: 20 ppm; after 14 days; salad seedlings
Protocol: Meloidogyne incognita—Test Solvent: 125.0 parts by weight of acetone To produce a suitable preparation of active compound, 1 part by weight of active compound is mixed with the stated amount of solvent, and the concentrate is diluted with water to the desired concentration. Vessels are filled with sand, a solution of the active ingredient, a suspension containing eggs and larvae of the southern root-knot nematode (Meloidogyne incognita) and salad seeds. The salad seeds germinate and the seedlings grow. Galls develop in the roots. After 14 days the nematicidal activity is determined on the basis of the percentage of gall formation. 100% means no galls were found and 0% means the number of galls found on the roots of the treated plants was equal to that in untreated control plants.

[13] = test system: Myzus persicae; test: Myzus persicae spray test; details: foliar, 120 h, after 5 days, Chinese cabbage leaf disks
Method in brief: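 Percent kill was recorded 5 days after spraying. Test solutions, prepared with solvent and diluted in 1000 ppm emulsifier water, were applied to Brassica pekinensis leaf disks carrying mixed-instar green peach aphids.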

CC(c1ncnn1-c1ccn(C)n1)N(CC1CC1)C(=O)c1cc(Cl)cc(C(F)(F)F)c1 (centres unmarked) [Example I-006] gave a pest or weed control at 0.02 mg [1] of 100%, a mortality at 100 ppm [2] of 100% and a mortality at 20 ppm [3] of 100%. For the same molecule, the mortality at 500 g/ha [4] was 100%, the mortality at 500 g/ha [5] was 100% and the pest or weed control at 80 µg/disc, 250 g/ha [6] was 100%. It also gave a pest or weed control at 160 µg/disc, 500 g/ha [6] of 100%.
Molecule C[C@H](NC(=O)c1cc(Cl)cc(C(F)(F)F)c1)c1ncnn1-c1ncc(OC(F)F)cn1 [Example I-012] has a pest or weed control at 0.02 mg [1] of 100%, a pest or weed control at 5 µg/cm2 [7] of 100% and a mortality at 100 ppm [2] of 100%. The mortality at 500 g/ha [8] was 100%, the mortality at 100 g/ha [9] was 100% and the mortality at 500 g/ha [9] was 100%. For the same molecule, the mortality at 100 g/ha [5] was 100%, the mortality at 500 g/ha [5] was 100% and the pest or weed control at 80 µg/disc, 250 g/ha [6] was 100%. The pest or weed control at 160 µg/disc, 500 g/ha [6] was 100%, the pest or weed control at 100 ppm [10] was 95% and the pest or weed control at 5 µg/cm2 [11] was 100%.
With Cc1cc(C)nc(-n2ncnc2C(C)N(CC2CC2)C(=O)c2cc(Cl)cc(C(F)(F)F)c2)n1 (centres unmarked) [Example I-002, 3-Chloro-N-(cyclopropylmethyl)-N-{1-[1-(4,6-dimethylpyrimidin-2-yl)-1H-1,2,4-triazol-5-yl]ethyl}-5-(trifluoromethyl)benzamide] the “nematicidal activity (gall formation)” value [12] was 90%.
In the case of COc1cc(C)nc(-n2ncnc2C(C)N(CC2CC2)C(=O)c2cc(Cl)cc(C(F)(F)F)c2)n1 (centres unmarked) [Example I-001], the “nematicidal activity (gall formation)” value [12] was 100% and the pest or weed control at 160 µg/disc, 500 g/ha [6] was 100%.
For CC(c1ncnn1-c1nc2ccccn2n1)N(CC1CC1)C(=O)c1cc(Cl)cc(C(F)(F)F)c1 (centres unmarked) [Example I-005], the pest or weed control at 0.02 mg [1] was 100%, the mortality at 100 ppm [2] was 100% and the mortality at 500 g/ha [4] was 100%. It also gave a mortality at 500 g/ha [9] of 100%, a mortality at 500 g/ha [5] of 100% and a pest or weed control at 80 µg/disc, 250 g/ha [6] of 100%. The pest or weed control at 160 µg/disc, 500 g/ha [6] was 100%.
For CC(c1ncnn1-c1ncc(C#N)cn1)N(CC1CC1)C(=O)c1cc(Cl)cc(C(F)(F)F)c1 (centres unmarked) [Example I-008], the mortality at 20 ppm [3] was 100%, the mortality at 500 g/ha [4] was 100% and the mortality at 100 g/ha [9] was 90%. It also gave a mortality at 500 g/ha [9] of 90%, a mortality at 100 g/ha [5] of 100% and a mortality at 500 g/ha [5] of 100%. It also gave a pest or weed control at 80 µg/disc, 250 g/ha [6] of 100% and a pest or weed control at 160 µg/disc, 500 g/ha [6] of 100%.
Work on C[C@H](NC(=O)c1cncc(C(F)(F)F)c1)c1ncnn1-c1ccc(C#N)cn1 [Example I-067] yielded a pest or weed control at 0.02 mg [1] of 100%, a pest or weed control at 5 µg/cm2 [7] of 100% and a mortality at 100 ppm [2] of 100%. For the same molecule, the mortality at 4 ppm ([3]; 4 ppm) was 100%, the mortality at 500 g/ha [8] was 90% and the mortality at 100 g/ha [13] was 90%. For the same molecule, the mortality at 500 g/ha [13] was 90%, the mortality at 100 g/ha [9] was 100% and the mortality at 500 g/ha [9] was 100%. It also gave a mortality at 100 g/ha [5] of 100%, a mortality at 500 g/ha [5] of 100% and a pest or weed control at 80 µg/disc, 250 g/ha [6] of 100%. The pest or weed control at 160 µg/disc, 500 g/ha [6] was 100% and the pest or weed control at 5 µg/cm2 [11] was 100%.
C[C@H](NC(=O)c1cc(Cl)cc(C(F)(F)F)c1)c1ncnn1-c1ccc(N(S(C)(=O)=O)S(C)(=O)=O)cn1 [Example I-037] was tested, and the pest or weed control at 0.02 mg [1] was 100%, the mortality at 100 ppm [2] was 100% and the mortality at 500 g/ha [8] was 100%. It also gave a mortality at 100 g/ha [13] of 90%, a mortality at 500 g/ha [13] of 90% and a mortality at 100 g/ha [9] of 100%. The mortality at 500 g/ha [9] was 100%, the mortality at 100 g/ha [5] was 100% and the pest or weed control at 80 µg/disc, 250 g/ha [6] was 100%. The pest or weed control at 160 µg/disc, 500 g/ha [6] was 100%, the pest or weed control at 100 ppm [10] was 100% and the pest or weed control at 5 µg/cm2 [11] was 100%.
C[C@H](NC(=O)c1cc(Cl)cc(C(F)(F)F)c1)c1ncnn1-c1ccc(-n2cccn2)cn1 [Example I-074] gave a pest or weed control at 0.02 mg [1] of 100%, a pest or weed control at 5 µg/cm2 [7] of 80% and a mortality at 100 ppm [2] of 80%. For the same molecule, the mortality at 100 g/ha [5] was 100%, the mortality at 500 g/ha [5] was 100% and the pest or weed control at 80 µg/disc, 250 g/ha [6] was 100%. For the same molecule, the pest or weed control at 160 µg/disc, 500 g/ha [6] was 100% and the pest or weed control at 5 µg/cm2 [11] was 80%.
